SMILES strings stand for the structures.

In test [1] the target is phosphorylated p-38-alpha kinase (Homo sapiens, UniProt Q16539). In words: P-38 alpha kinase assay P1 (coupled spectrophotometric, 2 h pre-incubation). The note with it: method P1 (2 h pre-incubation); read-out: P-38 Data. The test is classed as biochemical.
Test [2] has as its target B-Raf(V599E) kinase (Homo sapiens, UniProt P15056, V600E). In words: B-Raf(V599E) kinase assay B1 (construct 1, MEK1 substrate, coupled spectrophotometric). In kind it is biochemical. The procedure:
The test compounds were incubated with the reaction mixtureat 30° C. for 2 h. […] The reaction rate was calculated using the […] time frame. […] IC50 values were calculated from a series of percent inhibition values determined at a range of inhibitor concentrations using software routines as implemented in the GraphPad Prism software package.

B-Raf(V599E) kinase, sequence (P15056 with tags, fused parts or gaps V600E): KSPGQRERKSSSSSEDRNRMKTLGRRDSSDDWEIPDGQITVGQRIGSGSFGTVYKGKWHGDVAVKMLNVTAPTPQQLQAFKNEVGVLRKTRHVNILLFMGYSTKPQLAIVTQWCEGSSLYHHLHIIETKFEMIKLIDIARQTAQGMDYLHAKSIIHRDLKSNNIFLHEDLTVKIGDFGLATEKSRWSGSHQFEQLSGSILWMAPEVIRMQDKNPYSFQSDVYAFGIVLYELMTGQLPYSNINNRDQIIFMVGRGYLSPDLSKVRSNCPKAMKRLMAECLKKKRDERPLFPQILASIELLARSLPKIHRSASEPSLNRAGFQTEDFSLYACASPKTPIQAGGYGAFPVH
phosphorylated p-38-alpha kinase, sequence (Q16539 1-360 isoform Q16539-2): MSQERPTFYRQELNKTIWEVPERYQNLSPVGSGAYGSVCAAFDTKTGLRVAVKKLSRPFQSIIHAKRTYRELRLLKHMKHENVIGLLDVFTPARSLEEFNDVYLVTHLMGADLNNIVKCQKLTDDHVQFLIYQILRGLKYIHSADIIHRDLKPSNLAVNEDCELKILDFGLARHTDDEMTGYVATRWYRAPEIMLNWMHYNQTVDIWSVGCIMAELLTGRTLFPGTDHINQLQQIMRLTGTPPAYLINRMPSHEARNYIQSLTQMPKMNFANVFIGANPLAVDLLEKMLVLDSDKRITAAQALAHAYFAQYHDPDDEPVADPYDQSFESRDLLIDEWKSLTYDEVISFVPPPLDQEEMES

`CC(C)(C)c1ncc(NC(=O)Nc2cccc(Oc3cccnc3)c2)c(-c2ccccc2)n1` [Example 281, 1-(2-t-butyl-4-phenylpyrimidin-5-yl)-3-(3-(pyridin-3-yloxy)phenyl)urea]: the figures for the IC50 in test [1] and in test [2] were 5800 nM and 369 nM, respectively.
As to `O=C(O)Cc1cccc(-n2nc(-c3nccs3)cc2NC(=O)Nc2cccc(Cl)c2Cl)c1` [Example 359, 2-(3-(5-(3-(2,3-dichlorophenyl)ureido)-3-(thiazol-2-yl)-1H-pyrazol-1-yl)phenyl)acetic acid], the IC50 in test [1] was 70 nM.
`CN(C)[C@H]1CCN(C(=O)Cc2cccc(-n3nc(C4CCCC4)cc3NC(=O)Nc3cccc(Cl)c3Cl)c2)C1` [Example 419, 1-(3-cyclopentyl-1-(3-(2-((S)-3-(dimethylamino)pyrrolidin-1-yl)-2-oxoethyl)phenyl)-1H-pyrazol-5-yl)-3-(2,3-dichlorophenyl)urea]: the IC50 in test [1] amounted to 38 nM.
`CNC(=O)Cc1cccc(-n2nc(C(C)(C)C)cc2NC(=O)Nc2ccc(F)c(F)c2F)c1` [Example 402, 1-(3-t-butyl-1-(3-(2-(methylamino)-2-oxoethyl)phenyl)-1H-pyrazol-5-yl)-3-(2,3,4-trifluorophenyl)urea]: the IC50 in test [1] was 26 nM.
Still for that read-out and setting: the figure for `O=C(O)Cc1ccc(-n2nc(-c3cccs3)cc2NC(=O)N[C@H]2CCc3ccccc32)cc1` [Example 389, 2-(4-(5-(3-((S)-2,3-dihydro-1H-inden-1-yl)ureido)-3-(thiophen-2-yl)-1H-pyrazol-1-yl)phenyl)acetic acid] is 13 nM.
On the same count and under the same terms, the figure for `O=C(O)Cc1cccc(-n2nc(-c3ccccc3F)cc2NC(=O)N[C@H]2CCc3ccccc32)c1` [Example 360, 2-(3-(5-(3-((S)-2,3-dihydro-1H-inden-1-yl)ureido)-3-(2-fluorophenyl)-1H-pyrazol-1-yl)phenyl)acetic acid] is 20 nM.
Take `CC(C)(C)c1cc(NC(=O)Nc2cccc(Cl)c2Cl)n(-c2ccc(CC(=O)NCC(O)CO)cc2)n1` (stereo not drawn) [Example 493]: the IC50 in test [1] turned out to be 4 nM; in test [2] it was 11 nM.
In the case of `NC(=O)Cc1cccc(-n2nc(-c3cccs3)cc2NC(=O)N[C@H]2CCc3ccccc32)c1` [Example 415, 1-(1-(3-(2-amino-2-oxoethyl)phenyl)-3-(thiophen-2-yl)-1H-pyrazol-5-yl)-3-((S)-2,3-dihydro-1H-inden-1-yl)urea], the IC50 in test [1] turned out to be 17 nM.
As for `CC(C)(C)c1cc(NC(=O)Nc2cccc(Cl)c2Cl)n(-c2cccc(CC(=O)NCC(O)CO)c2)n1` (stereo not drawn) [Example 440, 1-(3-t-butyl-1-(3-(2-(2,3-dihydroxypropylamino)-2-oxoethyl)phenyl)-1H-pyrazol-5-yl)-3-(2,3-dichlorophenyl)urea], the results for the IC50 in test [1] and in test [2] were 7 nM and 4.1 nM, respectively.
As for `CNC(=O)Cc1cccc(-n2nc(C(C)(C)C)cc2NC(=O)Nc2cccc(F)c2F)c1` [Example 401, 1-(3-t-butyl-1-(3-(2-(methylamino)-2-oxoethyl)phenyl)-1H-pyrazol-5-yl)-3-(2,3-difluorophenyl)urea], the IC50 in test [1] was 63 nM.
As to `CC(C)(C)c1cc(NC(=O)NC2CCCCC2)n(-c2cc(CC(N)=O)c3ccccc3c2)n1` [Example 91, 1-(1-(4-(2-amino-2-oxoethyl)naphthalen-2-yl)-3-t-butyl-1H-pyrazol-5-yl)-3-cyclohexylurea], the IC50 in test [1] amounted to 350 nM; in test [2] it was 20 nM.
Take `O=C(Cc1ccc(-n2nc(-c3cccs3)cc2NC(=O)N[C@H]2CCc3ccccc32)cc1)NCCO` [Example 490, 1-((S)-2,3-dihydro-1H-inden-1-yl)-3-(1-(4-(2-(2-hydroxyethylamino)-2-oxoethyl)phenyl)-3-(thiophen-2-yl)-1H-pyrazol-5-yl)urea]: in test [1], the IC50 was found to be 53 nM.
Same read-out and setting: then `CC(C)(C)c1cc(NC(=O)Nc2ccc(F)c(F)c2F)n(-c2ccc(CC(N)=O)cc2)n1` [Example 466, 1-(1-(4-(2-amino-2-oxoethyl)phenyl)-3-t-butyl-1H-pyrazol-5-yl)-3-(2,3,4-trifluorophenyl)urea], with 22 nM.
On the same count and under the same terms, then `O=C(O)Cc1cccc(-n2nc(-c3cccs3)cc2NC(=O)Nc2cccc3ccccc23)c1` [Example 364, 2-(3-(5-(3-(naphthalen-1-yl)ureido)-3-(thiophen-2-yl)-1H-pyrazol-1-yl)phenyl)acetic acid], with 13 nM; and `O=C(Cc1cccc(-n2nc(-c3ccccc3F)cc2NC(=O)N[C@H]2CCc3ccccc32)c1)NCC(O)CO` (stereo partly drawn) [Example 413, 1-((S)-2,3-dihydro-1H-inden-1-yl)-3-(1-(3-(2-(2,3-dihydroxypropylamino)-2-oxoethyl)phenyl)-3-(2-fluorophenyl)-1H-pyrazol-5-yl)urea], with 28 nM; and `O=C(O)Cc1cccc(-n2nc(-c3ccccc3F)cc2NC(=O)Nc2cccc3ccccc23)c1` [Example 363, 2-(3-(3-(2-Fluorophenyl)-5-(3-(naphthalen-1-yl)ureido)-1H-pyrazol-1-yl)phenyl)acetic acid], with 13 nM.
Take `O=C(O)Cc1cccc(-n2nc(-c3cccs3)cc2NC(=O)Nc2ccc(F)c(F)c2F)c1` [Example 365, 2-(3-(3-(thiophen-2-yl)-5-(3-(2,3,4-trifluorophenyl)-ureido)-1H-pyrazol-1-yl)phenyl)acetic acid]: the IC50 in test [1] is 70 nM.
Same read-out and setting: then `COC[C@@H]1CCCN1C(=O)Cc1cccc(-n2nc(C(C)(C)C)cc2NC(=O)Nc2cccc(Cl)c2Cl)c1` [Example 409, 1-(3-t-butyl-1-(3-(2-((S)-2-(methoxymethyl)pyrrolidin-1-yl)-2-oxoethyl)phenyl)-1H-pyrazol-5-yl)-3-(2,3-dichlorophenyl)urea], with 150 nM.
For the compound `CC(C)(C)c1cc(NC(=O)Nc2ccc(Cl)cc2)n(-c2cccc(CO)c2)n1` [Example 224], in test [1], the IC50 is 38 nM.
In the case of `O=C(Cc1cccc(-n2nc(-c3cccs3)cc2NC(=O)N[C@H]2CCc3ccccc32)c1)NCCO` [Example 416, 1-((S)-2,3-dihydro-1H-inden-1-yl)-3-(1-(3-(2-(2-hydroxyethylamino)-2-oxoethyl)phenyl)-3-(thiophen-2-yl)-1H-pyrazol-5-yl)urea], the IC50 in test [1] worked out at 32 nM.
On the same count and under the same terms, then `O=C(Cc1cccc(-n2nc(-c3ccccc3F)cc2NC(=O)N[C@H]2CCc3ccccc32)c1)NCCO` [Example 412, 1-((S)-2,3-dihydro-1H-inden-1-yl)-3-(3-(2-fluorophenyl)-1-(3-(2-(2-hydroxyethylamino)-2-oxoethyl)phenyl)-1H-pyrazol-5-yl)urea], with 41 nM; and `COC[C@H]1CCCN1C(=O)Cc1ccc(-n2nc(C(C)(C)C)cc2NC(=O)Nc2cccc(Cl)c2Cl)cc1` [Example 484, (R)-1-(3-t-butyl-1-(4-(2-(2-(methoxymethyl)pyrrolidin-1-yl)-2-oxoethyl)phenyl)-1H-pyrazol-5-yl)-3-(2,3-dichlorophenyl)urea], with 13 nM.
On to `O=C(O)Cc1cccc(-n2nc(-c3ccccc3F)cc2NC(=O)Nc2ccc(F)c(F)c2F)c1` [Example 362, 2-(3-(3-(2-fluorophenyl)-5-(3-(2,3,4-trifluorophenyl)-ureido)-1H-pyrazol-1-yl)phenyl)acetic acid], for which the IC50 in test [1] stood at 38 nM.
On the same count and under the same terms, then `O=C(O)Cc1ccc(-n2nc(-c3ccccc3F)cc2NC(=O)Nc2ccc(F)c(F)c2F)cc1` [Example 388, 2-(4-(3-(2-fluorophenyl)-5-(3-(2,3,4-trifluorophenyl)ureido)-1H-pyrazol-1-yl)phenyl)acetic acid], with 91 nM.
On to `NC(=O)Cc1cccc(-n2nc(-c3ccccc3F)cc2NC(=O)Nc2ccc(F)c(F)c2F)c1` [Example 422, 1-(1-(3-(2-Amino-2-oxoethyl)phenyl)-3-(2-fluorophenyl)-1H-pyrazol-5-yl)-3-(2,3,4-trifluorophemyl)urea], for which the IC50 in test [1] is 98 nM.
For `O=C(O)Cc1cccc(-n2nc(-c3cccs3)cc2NC(=O)N[C@H]2CCc3ccccc32)c1` [Example 361, 2-(3-(5-(3-((S)-2,3-dihydro-1H-inden-1-yl)ureido)-3-(thiophen-2-yl)-1H-pyrazol-1-yl)phenyl)acetic acid], the IC50 in test [1] was 30 nM.
For `O=C(Cc1cccc(-n2nc(-c3ccccc3F)cc2NC(=O)Nc2cccc3ccccc23)c1)NCCO` [Example 426, 1-(3-(2-fluorophenyl)-1-(3-(2-(2-hydroxyethylamino)-2-oxoethyl)phenyl)-1H-pyrazol-5-yl)-3-(naphthalen-1-yl)urea], the IC50 in test [1] was 38 nM.
Consider `O=C(Cc1cccc(-n2nc(-c3cccs3)cc2NC(=O)N[C@H]2CCc3ccccc32)c1)NCC(O)CO` (stereo partly drawn) [Example 417, 1-((S)-2,3-dihydro-1H-inden-1-yl)-3-(1-(3-(2-(2,3-dihydroxypropylamino)-2-oxoethyl)phenyl)-3-(thiophen-2-yl)-1H-pyrazol-5-yl)urea], for which, in test [1], the IC50 was found to be 29 nM.
Turning to `NC(=O)Cc1cccc(-n2nc(-c3ccccc3F)cc2NC(=O)N[C@H]2CCc3ccccc32)c1` [Example 411, 1-(1-(3-(2-amino-2-oxoethyl)phenyl)-3-(2-fluorophenyl)-1H-pyrazol-5-yl)-3-((S)-2,3-dihydro-1H-inden-1-yl)urea], the IC50 in test [1] came to 37 nM.
As for `CC(C)(C)c1cc(NC(=O)Nc2cccc(Cl)c2Cl)n(-c2cccc(CC(=O)N3CCC[C@@H]3CO)c2)n1` [Example 407, 1-(3-t-butyl-1-(3-(2-((R)-2-(hydroxymethyl)pyrrolidin-1-yl)-2-oxoethyl)phenyl)-1H-pyrazol-5-yl)-3-(2,3-dichlorophenyl)urea], the IC50 in test [1] is 45 nM.
As to `O=C(Cc1cccc(-n2nc(-c3ccc(F)cc3)cc2NC(=O)Nc2cccc(Cl)c2Cl)c1)NCCO` [Example 455, 1-(2,3-dichlorophenyl)-3-(3-(4-fluorophenyl)-1-(3-(2-(2-hydroxyethylamino)-2-oxoethyl)phenyl)-1H-pyrazol-5-yl)urea], the IC50 in test [1] stood at 82 nM.
Same read-out and setting: then `CC(C)(C)c1cc(NC(=O)Nc2cccc(Cl)c2Cl)n(-c2cccc(CC(=O)N3CCC[C@H]3CO)c2)n1` [Example 408, 1-(3-t-butyl-1-(3-(2-((S)-2-(hydroxymethyl)pyrrolidin-1-yl)-2-oxoethyl)phenyl)-1H-pyrazol-5-yl)-3-(2,3-dichlorophenyl)urea], with 46 nM.

The values above are taken from patent publication US8163756B2 (priority 2004, dated 2012).
